Literature values as cited in US20090285877A1, “Percutaneous absorption preparation containing palonosetron” (HISAMITSU PHARMACEUTICAL CO., INC.,, priority 2008, published 2009).

Molecular target: T1, 5-HT3 receptor (Homo sapiens, UniProt P46098)
T1 sequence (P46098 24-478): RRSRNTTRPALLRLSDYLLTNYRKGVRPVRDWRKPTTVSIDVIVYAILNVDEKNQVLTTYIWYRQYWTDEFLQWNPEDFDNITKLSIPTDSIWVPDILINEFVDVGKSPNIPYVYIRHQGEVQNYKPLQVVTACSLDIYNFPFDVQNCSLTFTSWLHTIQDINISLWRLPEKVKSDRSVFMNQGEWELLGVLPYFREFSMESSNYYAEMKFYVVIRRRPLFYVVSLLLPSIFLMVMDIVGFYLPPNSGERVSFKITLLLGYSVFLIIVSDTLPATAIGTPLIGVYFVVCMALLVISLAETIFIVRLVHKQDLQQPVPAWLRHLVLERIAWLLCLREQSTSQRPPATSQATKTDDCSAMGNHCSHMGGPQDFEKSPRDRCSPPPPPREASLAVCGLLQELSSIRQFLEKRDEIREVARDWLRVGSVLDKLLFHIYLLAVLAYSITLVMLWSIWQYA

binding affinity for 5-HT3 receptor: high binding affinity
Compound: Cl.O=C1c2cccc3c2[C@H](CCC3)CN1[C@@H]1CN2CCC1CC2 [Palonosetron hydrochloride, (3aS)-2-[(S)-1-azabicyclo[2.2.2]oct-3-yl]-2,3,3a,4,5,6-hexahydro-1-oxo-1H-1Hbenz[de]isoquinoline hydrochloride]
